Source: ChEMBL document CHEMBL1127438, “Substituted (S)-phenylpiperidines and rigid congeners as preferential dopamine autoreceptor antagonists: synthesis and structure-activity relationships” (J Med Chem, 1994)

Assays:
D(2) dopamine receptor [1] = molecular target: T1, D(2) dopamine receptor (Rattus norvegicus, UniProt P61169)
Description: Affinity against striatal dopamine D2 receptors using [3H]spiperone as radioligand in rats.

Rattus norvegicus [2] = experiment: Evaluated biochemically in reserpine-pretreated habituated rats for (100 umol/kg) subcuteneous dose, Value expressed as locomotor activity (LMA); assay type: functional
Rattus norvegicus [3] = experiment: Evaluated biochemically in nonpretreated habituated rats for (100 uM/kg) subcuteneous dose, Value expressed as locomotor activity (LMA); assay type: functional
Rattus norvegicus [4] = experiment: Evaluated biochemically in reserpine-pretreated habituated rats for (100 umol/kg) subcuteneous dose in rat striatum (DOPAacc), Value expressed as counts/30 min; assay type: functional
Rattus norvegicus [5] = experiment: Compound is evaluated for DOPAC accumulation in nonpretreated habituated rats after subcuteneous dose of 100 micro mol/kg in rat striatum; assay type: functional
D(2) dopamine receptor [6] = molecular target: T2, D(2) dopamine receptor (Homo sapiens, UniProt P14416); experiment: biochemical
T2 sequence (P14416 whole entry): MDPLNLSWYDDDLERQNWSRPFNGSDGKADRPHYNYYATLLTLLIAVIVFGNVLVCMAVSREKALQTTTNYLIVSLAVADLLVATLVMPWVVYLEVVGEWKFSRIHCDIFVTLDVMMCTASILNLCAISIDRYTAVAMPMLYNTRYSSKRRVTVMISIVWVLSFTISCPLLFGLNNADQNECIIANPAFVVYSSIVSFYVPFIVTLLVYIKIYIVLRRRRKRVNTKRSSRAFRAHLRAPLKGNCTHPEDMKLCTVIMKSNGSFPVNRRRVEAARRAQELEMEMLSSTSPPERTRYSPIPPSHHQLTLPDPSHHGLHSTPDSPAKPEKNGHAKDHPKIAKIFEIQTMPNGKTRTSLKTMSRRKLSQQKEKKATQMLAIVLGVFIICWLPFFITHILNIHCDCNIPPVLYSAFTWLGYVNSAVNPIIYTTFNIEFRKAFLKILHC
Description: Affinity against recombinant dopamine receptor (DA) D2 expressed in CHO-K1 cells, using [3H]-spiperone as radioligand

Rattus norvegicus [7] = experiment: Compound is evaluated for locomotor activity in reserpine-pretreated habituated rats at 3.2 umol/kg) of subcuteneous dose; assay type: functional
Rattus norvegicus [8] = experiment: Effect (60 min after administration of 200 (1.6 micro mol/kg) subcuteneous dose on DA release in brain dialysis model of rat; assay type: functional
Rattus norvegicus [9] = experiment: Compound is evaluated for DOPA accumulation in reserpine-pretreated habituated rats fat 3.2 micro mol/kg of subcuteneous dose in rat striatum; assay type: functional
Rattus norvegicus [10] = experiment: Compound is evaluated for locomotor activity in nonpretreated habituated rats in 25 umol/kg of subcuteneous dose; assay type: functional
Rattus norvegicus [11] = experiment: Compound is evaluated for locomotor activity in nonhabituated rats at 3.2 umol/kg of subcuteneous dose; assay type: functional
Rattus norvegicus [12] = experiment: Evaluated for biochemical levels of DOPAC in nonpretreated habituated rats for subcuteneous dose of 100 micro mol/kg in rat striatum; assay type: functional
Rattus norvegicus [13] = experiment: Compound is evaluated biochemically in nonhabituated rats for (0.64 micro mol/kg) subcuteneous dose in rat striatum (DOPAacc); assay type: functional
Dopamine receptor = experiment: Tested for in vitro binding affinity against cloned mammalian dopamine autoreceptor (DA) receptors expressed in CHO-K1 cells using [3H]U-86170 as radioligand; assay type: cell-based
Rattus norvegicus [14] = experiment: Compound is evaluated for DOPA accumulation in nonpretreated habituated rats for subcuteneous dose of 100 micro mol/kg in rat striatum; assay type: functional
D(2) dopamine receptor [15] = molecular target: T1, D(2) dopamine receptor; experiment: Tested for affinity against striatal dopamine autoreceptor (DA) D2 receptors using [3H]spiperone as radioligand in rats.
Rattus norvegicus [16] = experiment: Compound is evaluated for DOPA accumulation in reserpine-pretreated habituated rats at 100 micro mol/kg of subcuteneous dose in rat striatum; assay type: functional
D(3) dopamine receptor [17] = molecular target: T3, D(3) dopamine receptor (Homo sapiens, UniProt P35462); experiment: Tested for in vitro binding affinity against cloned mammalian dopamine autoreceptor (DA) receptors expressed in CHO-K1 cells [3H]-spiperone as radioligand; assay type: cell-based
T3 sequence (P35462 whole entry): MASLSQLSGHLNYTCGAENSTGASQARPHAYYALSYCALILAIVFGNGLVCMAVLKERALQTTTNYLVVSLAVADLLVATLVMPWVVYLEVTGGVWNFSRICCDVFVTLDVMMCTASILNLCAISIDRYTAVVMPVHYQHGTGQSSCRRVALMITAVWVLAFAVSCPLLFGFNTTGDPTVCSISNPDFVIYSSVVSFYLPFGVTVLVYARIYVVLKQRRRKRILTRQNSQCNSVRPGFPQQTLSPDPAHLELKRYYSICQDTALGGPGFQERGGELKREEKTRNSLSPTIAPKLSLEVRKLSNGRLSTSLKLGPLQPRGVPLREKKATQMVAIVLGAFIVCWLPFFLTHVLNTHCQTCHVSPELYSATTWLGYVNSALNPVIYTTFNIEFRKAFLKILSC

Rattus norvegicus [18] = experiment: Compound is evaluated biochemically in nonhabituated rats for (100 umol/kg) subcuteneous dose, Value expressed as locomotor activity (LMA); assay type: functional
Rattus norvegicus [19] = experiment: Evaluated for DOPAC level in nonpretreated habituated rats after subcuteneous dose of 100 micro mol/kg in rat striatum; assay type: functional
D(2) dopamine receptor [20] = molecular target: T2, D(2) dopamine receptor; experiment: biochemical; remark: listed apart in the source
Description: In vitro binding affinity against cloned mammalian dopamine D2 autoreceptor, expressed in CHO-K1 cells, using [3H]U-86170 as radioligand

D(3) dopamine receptor [21] = molecular target: D(3) dopamine receptor (Rattus norvegicus, UniProt P19020); experiment: Tested for in vitro binding affinity against cloned mammalian dopamine autoreceptor, expressed in CHO-K1 cells, using [3H]spiperone as radioligand; assay type: cell-based
Chain of D(3) dopamine receptor (Rattus norvegicus, UniProt P19020) (P19020 whole entry): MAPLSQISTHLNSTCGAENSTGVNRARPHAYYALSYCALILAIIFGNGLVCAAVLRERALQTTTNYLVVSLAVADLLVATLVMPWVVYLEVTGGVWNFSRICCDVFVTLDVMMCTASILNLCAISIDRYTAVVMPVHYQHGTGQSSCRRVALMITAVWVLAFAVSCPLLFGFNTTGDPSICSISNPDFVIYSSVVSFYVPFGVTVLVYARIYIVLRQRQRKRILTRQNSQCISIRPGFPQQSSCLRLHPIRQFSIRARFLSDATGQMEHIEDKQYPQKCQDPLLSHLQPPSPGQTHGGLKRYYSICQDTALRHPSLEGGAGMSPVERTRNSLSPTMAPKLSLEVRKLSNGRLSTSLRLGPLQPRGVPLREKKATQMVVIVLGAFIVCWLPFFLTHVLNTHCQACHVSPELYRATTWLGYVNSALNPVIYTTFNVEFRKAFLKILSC

Rattus norvegicus [22] = experiment: Evaluated for DOPA accumulation (DOPAacc) level in nonhabituated rats after subcuteneous dose (100 uM/kg) in rat striatum; assay type: functional
Rattus norvegicus [23] = experiment: Compound is evaluated for DOPA accumulation in reserpine-pretreated habituated rats at 50 umol/kg of subcuteneous dose in rat striatum; assay type: functional
Rattus norvegicus [24] = experiment: Evaluated for locomotor activity in nonpretreated habituated rats in 100 umol/kg of subcuteneous dose; assay type: functional; parameters: unit not given here
Rattus norvegicus [25] = experiment: Compound is evaluated for locomotor activity in nonpretreated habituated rats in 50 umol/kg of subcuteneous dose; assay type: functional
Rattus norvegicus [26] = experiment: Effect (60 min after administration of 200 (micro mol/kg) subcuteneous dose on DA release in brain dialysis model of rat; assay type: functional
Rattus norvegicus [27] = experiment: Evaluated for DOPA accumulation in nonhabituated rats at 100 umol/kg of subcuteneous dose in rat striatum; assay type: functional
Rattus norvegicus [28] = experiment: Compound is evaluated for accumulation of DOPA in nonhabituated rats at 100 umol/kg of subcuteneous dose in rat striatum; assay type: functional
Rattus norvegicus [29] = experiment: Effect 60 min after administration of 200 (umol/kg) subcuteneous dose on DA release in rat brain dialysis model; assay type: functional
Rattus norvegicus [30] = experiment: Evaluated for locomotor activity in nonpretreated habituated rats at 100 umol/kg of subcuteneous dose; assay type: functional; parameters: unit not given here
Rattus norvegicus [31] = experiment: Compound is evaluated for locomotor activity in nonhabituated rats at 100 umol/kg of subcuteneous dose; assay type: functional
Rattus norvegicus [32] = experiment: Evaluated biochemically in nonhabituated rats for (100 umol/kg) subcuteneous dose, Value expressed as locomotor activity (LMA); assay type: functional
Rattus norvegicus [33] = species: Rattus norvegicus; experiment: Compound was tested in vio for concomitant ability to antagonize the locomotor activity of rat induced by Di-Pr-5,6-ADTN, Value expressed as locomotor activity (LMA), % of control; assay type: functional; parameters: scale not given: the % may be the effect or the level left
Rattus norvegicus [34] = experiment: Effect of (60 min after administration of 200 (uM/kg) subcuteneous dose on DA release in brain dialysis model of rat striatum; Values expressed as percent of saline controls; assay type: functional
D(3) dopamine receptor [35] = molecular target: T3, D(3) dopamine receptor; experiment: Tested for in vitro binding affinity against cloned mammalian dopamine D3 receptor, expressed in CHO-K1 cells, using [3H]spiperone as radioligand; assay type: cell-based
Rattus norvegicus [36] = experiment: Tested in vivo for its ability to displace DA receptor agonist (Di-Pr-5,6-ADTN) from rat striatal binding sites at 0.25 uM/Kg sc. dose (after subtraction of cerebellum levels); assay type: functional
Rattus norvegicus [37] = species: Rattus norvegicus; experiment: Compound was tested in vio for concomitant ability to antagonize the locomotor activity of rat induced by Di-Pr-5,6-ADTN; assay type: functional
Rattus norvegicus [38] = experiment: Compound was tested in vivo for its ability to displace DA receptor agonist (Di-Pr-5,6-ADTN) from rat striatal binding sites at 0.25 uM/Kg sc. dose; assay type: functional
Rattus norvegicus [39] = species: Rattus norvegicus; experiment: Tested in vio for concomitant ability to antagonize the locomotor activity of rat induced by Di-Pr-5,6-ADTN, Value expressed as locomotor activity (LMA), % of control; assay type: functional; parameters: scale not given: the % may be the effect or the level left
Rattus norvegicus [40] = experiment: Compound is evaluated for DOPAC level in nonpretreated habituated rats after subcuteneous dose (100 micro mol/kg) in rat striatum; value expressed as percent of saline controls; assay type: functional

T1 sequence (P61169 whole entry): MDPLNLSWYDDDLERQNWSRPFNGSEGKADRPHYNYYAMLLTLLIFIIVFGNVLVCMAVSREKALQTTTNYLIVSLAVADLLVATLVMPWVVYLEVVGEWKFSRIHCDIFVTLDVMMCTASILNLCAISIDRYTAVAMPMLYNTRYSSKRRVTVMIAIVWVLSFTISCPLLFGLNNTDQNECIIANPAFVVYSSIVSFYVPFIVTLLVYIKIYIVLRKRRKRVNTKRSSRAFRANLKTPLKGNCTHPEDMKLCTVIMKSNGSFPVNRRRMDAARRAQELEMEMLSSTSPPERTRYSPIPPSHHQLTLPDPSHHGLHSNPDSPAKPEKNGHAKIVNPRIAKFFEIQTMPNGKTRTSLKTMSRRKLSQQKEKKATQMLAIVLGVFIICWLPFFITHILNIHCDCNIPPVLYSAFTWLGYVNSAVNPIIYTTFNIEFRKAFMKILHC

| SMILES | Ki (D(2) dopamine receptor [1]) | Control (Rattus norvegicus [2]) | Control (Rattus norvegicus [3]) | Activity (Rattus norvegicus [4]) | Ki (D(2) dopamine receptor [6]) | Activity (Rattus norvegicus [12]) | Ki (Dopamine receptor) | Ki (D(2) dopamine receptor [15]) | Activity (Rattus norvegicus [16]) | Ki (D(3) dopamine receptor [17]) | Activity (Rattus norvegicus [19]) | Ki (D(2) dopamine receptor [20]) | Activity (Rattus norvegicus [22]) | Locomotor activity (% of control) (Rattus norvegicus [32]) | other results |
| --- | --- | --- | --- | --- | --- | --- | --- | --- | --- | --- | --- | --- | --- | --- | --- |
| CCCN1CCC[C@@H](c2cccc(N)c2)C1 | 2 µM | 72% | 113% | 91% | > 0.217 µM | – | – | – | – | – | – | – | – | – | Activity (Rattus norvegicus [5]): 128% |
| CN1CCc2cccc3c2[C@H]1Cc1ccc(O)c(O)c1-3 [APOMORPHINE] | – | – | – | – | – | 65% | – | – | – | – | – | – | – | – | LMA (Rattus norvegicus [7]): 366; Activity (Rattus norvegicus [8]): 37%; Activity (Rattus norvegicus [9]): 20%; LMA (Rattus norvegicus [10]): 491; LMA (Rattus norvegicus [11]): 277; Activity (Rattus norvegicus [13]): 53% |
| CCCc1cccc([C@@H]2CCCN(CCC)C2)c1 | – | – | – | – | > 0.217 µM | 181% | 0.057 µM | 0.392 µM | 62% | 0.086 µM | – | – | – | – | Activity (Rattus norvegicus [14]): 190%; LMA (Rattus norvegicus [16]): 734 |
| CCCN1CCC[C@@H](c2cccc(OC)c2)C1 | 3.44 µM | 23% | 463% | 66% | > 0.217 µM | – | – | – | – | – | 149% | 0.602 µM | 131% | – | Control (Rattus norvegicus [18]): 160%; Ki (D(3) dopamine receptor [21]): 1.33 µM |
| CCCN1CCCC2c3cccc(OS(=O)(=O)C(F)(F)F)c3CCC21 (stereo in doubt; 46) | – | – | – | – | > 0.217 µM | 263% | 0.021 µM | 0.064 µM | 62% | 0.022 µM | – | – | – | – | Activity (Rattus norvegicus [23]): 85%; LMA (Rattus norvegicus [24]): 200; LMA (Rattus norvegicus [25]): 211 |
| O=S(=O)(Oc1cccc([C@@H]2CCCN(CCc3ccccc3)C2)c1)C(F)(F)F | – | – | – | – | 0.073 µM | – | 0.011 µM | 0.04 µM | 66% | 0.019 µM | – | – | – | – | Activity (Rattus norvegicus [26]): 89%; LMA (Rattus norvegicus [24]): 20; Activity (Rattus norvegicus [27]): 111% |
| C#Cc1cccc([C@@H]2CCCN(CCC)C2)c1 | – | – | – | – | > 0.217 µM | 138% | 0.334 µM | 0.709 µM | – | 0.339 µM | – | – | – | – | Activity (Rattus norvegicus [28]): 136%; Activity (Rattus norvegicus [29]): 265%; LMA (Rattus norvegicus [30]): 671; LMA (Rattus norvegicus [31]): 237 |
| CCCN1CCC[C@@H](c2cccc(OS(C)(=O)=O)c2)C1 | 4.17 µM | 18% | 576% | 74% | > 0.217 µM | – | – | – | – | – | – | 0.192 µM | 249% | 154% | Control (Rattus norvegicus [33]): 46%; Activity (Rattus norvegicus [34]): 234%; Ki (D(3) dopamine receptor [35]): 0.978 µM; Control (Rattus norvegicus [36]): 55% |
| CCN1CCCC1CNC(=O)c1c(OC)ccc(Br)c1OC (single isomer, unassigned) [REMOXIPRIDE] | – | 5% | – | 104% | – | – | – | – | – | – | 313% | – | 411% | 60% | LMA (Rattus norvegicus [37]): 91%; Control (Rattus norvegicus [38]): 48% |
| CCCN1CCC[C@@H](c2cccc(C(C)=O)c2)C1 | 6.54 µM | 7% | 824% | 73% | > 0.217 µM | – | – | – | – | – | 243% | > 1.85 µM | – | 139% | Activity (Rattus norvegicus [34]): 179%; Control (Rattus norvegicus [39]): 81%; Control (Rattus norvegicus [40]): 183%; Ki (D(3) dopamine receptor [35]): 2.15 µM; Control (Rattus norvegicus [36]): 44% |
